Measurements: US20240308994A1, “ISOXAZOLE DERIVATIVE OR PHARMACEUTICALLY ACCEPTABLE SALT THEREOF AND USE THEREOF” (INDUSTRY-UNIVERSITY COOPERATION FOUNDATION HANYANG …, priority 2021, published 2024)
Where two headings read alike, the source gives them in different places.

Columns and labels:
CSF-1R = molecular target: T1, CSF-1R (Homo sapiens, UniProt P07333); assay: protein kinase profile for 50 selected protein Kinase (FIG. 5), CSF-1R; format: biochemical; details: single-dose concentration 1.0 μM
T1 construct: purchased Reaction Biology Corp. (Kinase HotSpot service)
T1 sequence (P07333 20-972): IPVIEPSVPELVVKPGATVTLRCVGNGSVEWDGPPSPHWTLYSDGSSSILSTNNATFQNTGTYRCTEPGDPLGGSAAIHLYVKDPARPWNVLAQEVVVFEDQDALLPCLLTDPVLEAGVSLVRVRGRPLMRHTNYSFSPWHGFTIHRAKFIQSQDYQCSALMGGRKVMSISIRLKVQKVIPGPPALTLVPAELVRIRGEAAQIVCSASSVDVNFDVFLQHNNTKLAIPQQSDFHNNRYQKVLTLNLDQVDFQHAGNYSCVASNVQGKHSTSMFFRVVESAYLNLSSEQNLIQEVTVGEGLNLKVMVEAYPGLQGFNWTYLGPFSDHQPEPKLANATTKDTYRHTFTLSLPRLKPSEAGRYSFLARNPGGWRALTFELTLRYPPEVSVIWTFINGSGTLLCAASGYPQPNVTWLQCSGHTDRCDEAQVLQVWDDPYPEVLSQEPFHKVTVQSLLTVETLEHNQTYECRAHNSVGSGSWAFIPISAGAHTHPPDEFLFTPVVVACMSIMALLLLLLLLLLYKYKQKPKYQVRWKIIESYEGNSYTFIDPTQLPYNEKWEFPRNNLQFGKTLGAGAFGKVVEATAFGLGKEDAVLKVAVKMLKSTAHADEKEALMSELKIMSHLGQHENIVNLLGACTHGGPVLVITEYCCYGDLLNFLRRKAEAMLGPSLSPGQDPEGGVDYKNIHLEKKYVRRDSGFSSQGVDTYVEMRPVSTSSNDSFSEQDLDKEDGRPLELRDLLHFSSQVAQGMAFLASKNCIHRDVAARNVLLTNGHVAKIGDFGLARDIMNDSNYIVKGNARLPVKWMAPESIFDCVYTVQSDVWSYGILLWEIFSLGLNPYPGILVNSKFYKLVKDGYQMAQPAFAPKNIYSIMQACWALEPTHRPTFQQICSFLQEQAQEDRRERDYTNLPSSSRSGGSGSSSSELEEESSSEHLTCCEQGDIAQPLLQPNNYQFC

FMS (h) = molecular target: T2, FMS (h) (Homo sapiens, UniProt P07333); assay: Kinase HotSpot radiometric assay, activity on CSF-1R (FMS); format: biochemical
T2 construct: purchased Reaction Biology Corp. (Kinase HotSpot service)
T2 sequence (P07333 20-972): as above

CRaf = molecular target: T3, CRaf (Homo sapiens, UniProt P04049); assay: protein kinase profile for 50 selected protein Kinase (FIG. 5), CRaf; format: biochemical; details: single-dose concentration 1.0 μM
T3 construct: purchased Reaction Biology Corp. (Kinase HotSpot service)
T3 sequence (P04049 whole entry): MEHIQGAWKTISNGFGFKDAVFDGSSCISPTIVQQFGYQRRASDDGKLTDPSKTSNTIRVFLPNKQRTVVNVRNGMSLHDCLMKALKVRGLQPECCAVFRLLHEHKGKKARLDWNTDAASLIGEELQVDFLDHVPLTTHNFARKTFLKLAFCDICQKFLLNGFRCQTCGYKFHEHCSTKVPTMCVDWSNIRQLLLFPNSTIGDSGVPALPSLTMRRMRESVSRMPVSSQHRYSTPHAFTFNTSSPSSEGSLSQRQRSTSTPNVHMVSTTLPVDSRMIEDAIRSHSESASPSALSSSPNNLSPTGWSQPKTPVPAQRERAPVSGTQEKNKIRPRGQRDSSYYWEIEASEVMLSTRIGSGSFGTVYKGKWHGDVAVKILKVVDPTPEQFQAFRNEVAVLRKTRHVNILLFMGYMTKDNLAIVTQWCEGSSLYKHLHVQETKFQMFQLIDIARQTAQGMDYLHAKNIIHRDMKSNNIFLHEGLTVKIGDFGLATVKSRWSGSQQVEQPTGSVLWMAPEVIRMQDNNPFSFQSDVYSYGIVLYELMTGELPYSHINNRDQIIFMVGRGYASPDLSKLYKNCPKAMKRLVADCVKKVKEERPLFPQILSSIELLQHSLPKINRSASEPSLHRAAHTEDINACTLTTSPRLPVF

metabolic stability (MS) = format: in vitro ADME
Lyn = molecular target: T4, Lyn (Homo sapiens, UniProt P07948); assay: protein kinase profile for 50 selected protein Kinase (FIG. 5), Lyn; format: biochemical; details: single-dose concentration 1.0 μM
T4 construct: purchased Reaction Biology Corp. (Kinase HotSpot service)
T4 sequence (P07948 whole entry): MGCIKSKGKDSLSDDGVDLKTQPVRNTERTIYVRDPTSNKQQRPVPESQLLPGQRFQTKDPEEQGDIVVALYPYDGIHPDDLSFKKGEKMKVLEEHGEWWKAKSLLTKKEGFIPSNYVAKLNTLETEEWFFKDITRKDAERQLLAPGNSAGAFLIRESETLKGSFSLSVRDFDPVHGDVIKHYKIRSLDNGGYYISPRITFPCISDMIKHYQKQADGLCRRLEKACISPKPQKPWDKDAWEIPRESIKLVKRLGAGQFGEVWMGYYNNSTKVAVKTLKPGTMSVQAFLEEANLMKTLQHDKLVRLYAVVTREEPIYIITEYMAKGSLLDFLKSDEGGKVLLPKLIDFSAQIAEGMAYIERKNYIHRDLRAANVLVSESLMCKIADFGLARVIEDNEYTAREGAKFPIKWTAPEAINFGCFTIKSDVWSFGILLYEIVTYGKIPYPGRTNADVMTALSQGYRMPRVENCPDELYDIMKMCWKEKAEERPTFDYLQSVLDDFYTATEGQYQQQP

BRafV600E = molecular target: T5, BRafV600E (Homo sapiens, UniProt P15056, V600E); assay: protein kinase profile for 50 selected protein Kinase (FIG. 5), BRafV600E; format: biochemical; details: single-dose concentration 1.0 μM
T5 construct: purchased Reaction Biology Corp. (Kinase HotSpot service)
T5 sequence (P15056 416-766 V600E limits assumed): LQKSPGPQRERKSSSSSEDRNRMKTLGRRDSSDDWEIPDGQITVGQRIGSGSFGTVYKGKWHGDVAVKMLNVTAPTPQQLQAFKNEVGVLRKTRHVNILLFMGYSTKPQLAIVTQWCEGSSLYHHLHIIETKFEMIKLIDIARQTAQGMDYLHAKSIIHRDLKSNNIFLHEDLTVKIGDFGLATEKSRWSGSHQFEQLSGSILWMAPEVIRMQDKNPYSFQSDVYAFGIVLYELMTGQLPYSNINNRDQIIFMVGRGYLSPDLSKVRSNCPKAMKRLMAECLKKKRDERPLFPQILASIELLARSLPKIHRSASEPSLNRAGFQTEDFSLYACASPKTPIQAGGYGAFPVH

PAMPA assay = format: in vitro ADME; details: read-out: PAMPA assay Pe Avg
plasma stability (PS) = format: in vitro ADME
EMS and FLT3 = assay: Protein Kinase Profiling analysis, selectivity (FIG. 4); format: biochemical
[1] = Table 3, read-out: IC50 (M) on FMS

IC50 (FMS (h); [1]) | IC50 (FMS (h); Table 1, read-out: IC50) | Compound | further results
 |  | Cc1ccc(NC(=O)c2cc(N3CCN(C)CC3)cc(C(F)(F)F)c2)cc1NC(=O)c1cnoc1C [Comparative example 1, reference compound] | inhibitory activity against CSF-1R (CSF-1R): inhibitory activity; IC50 (FMS (h); Table 5, read-out: IC50 on CSF-1R): 1.03e-08 M; inhibitory activity against CRaf (CRaf): inhibitory activity; MS (human) %@60 min (metabolic stability (MS)): <10%; inhibitory activity against Lyn (Lyn): inhibitory activity; inhibitory activity against BRafV600E (BRafV600E): inhibitory activity
 |  | Cc1cc(C(=O)Nc2cc(NC(=O)c3cc(N4CCN(C)CC4)cc(C(F)(F)F)c3)ccc2C)no1 [Compound 5a, 5-methyl-N-(2-methyl-5-(3-(4-methylpiperazin-1-yl)-5-(trifluoromethyl)benzamido)phenyl)isoxazole-3-carboxamide] | Papp (PAMPA assay): 55.5 ×10⁻⁶ cm/s; PS (human) @30 min (plasma stability (PS); 30 min): > 100%; PS (human) @60 min (plasma stability (PS); 60 min): > 100%
< 1e-07 M |  | Cc1cc(C(=O)Nc2ccc(C3CC(C)(C)NC(C)(C)C3)cc2C2=CCC(C)CC2)no1 (stereo not drawn) [Compound 92b, 5-methyl-N-(4′-methyl-5-(2,2,6,6-tetramethylpiperidin-4-yl)-2′,3′,4,5′-tetrahydro-[1,1′-biphenyl]-2-yl)isoxazole-3-carboxamide] | kinase selectivity of EMS and FLT3 (EMS and FLT3): high selectivity; IC50 (FMS (h); Table 2, read-out: IC50 (μm)): < 1e-07 M
> 1e-06 M | > 1e-06 M | Cc1cc(C(=O)Nc2ccc(C3CCNCC3)cc2C2CCCCC2)no1 [Compound 65b, N-(2-cyclohexyl-4-(piperidin-4-yl)phenyl)-5-methylisoxazole-3-carboxamide] | 
1e-07 to 1e-06 M |  | Cc1cc(C(=O)Nc2ccc(C3CC[N+](C)(C)CC3)cc2C2CCCCC2)no1 [Compound 81b, 4-(3-cyclohexyl-4-(5-methylisoxazole-3-carboxamido)phenyl)-1,1-dimethylpiperidin-1-ium] | 
< 1e-07 M |  | Cc1cc(C(=O)Nc2ccc(C3CCC[N+](C)(C)CC3)cc2C2=CCCCC2)no1 (stereo not drawn) [Compound 79c, 1,1-dimethyl-4-(6-(5-methylisoxazole-3-carboxamido)-2′,3′,4′,5′-tetrahydro-[1,1′-biphenyl]-3-yl)azepan-1-ium] | 
> 1e-06 M |  | Cc1cc(C(=O)Nc2cc(NC(=O)c3ccc4cn[nH]c4c3)ccc2C)no1 [Compound 5t, N-(5-(1H-indazole-6-carboxamido)-2-methylphenyl)-5-methylisoxazole-3-carboxamide] | 
< 1e-07 M | < 1e-07 M | Cc1cc(C(=O)Nc2ccc(C3CCNCC3)cc2C2=CCCCC2)no1 [Compound 60b, 5-methyl-N-(5-(piperidin-4-yl)-2′,3′,4′,5′-tetrahydro-[1,1′-biphenyl]-2-yl)isoxazole-3-carboxamide] | 
> 1e-06 M | > 1e-06 M | Cc1cc(C(=O)Nc2ccc(C3CCNCC3)cc2-c2cncnc2)no1 [Compound 62b, 5-methyl-N-(4-(piperidin-4-yl)-2-(pyrimidin-5-yl)phenyl)isoxazole-3-carboxamide] | 
< 1e-07 M | < 1e-07 M | CCN1CCC(c2ccc(NC(=O)c3cc(C)on3)c(C3=CCC(C)(C)CC3)c2)CC1 [Compound 73b, N-(5-(1-ethylpiperidin-4-yl)-4′,4′-dimethyl-2′,3′,4′,5′-tetrahydro-[1,1′-biphenyl]-2-yl)-5-methylisoxazole-3-carboxamide] | 
< 1e-07 M | < 1e-07 M | Cc1cc(C(=O)Nc2ccc(C3CCN(CC4CC4)CC3)cc2C2=CCC(C)(C)CC2)no1 [Compound 78b, N-(5-(1-(cyclopropylmethyl)piperidin-4-yl)-4′,4′-dimethyl-2′,3′,4′,5′-tetrahydro-[1,1′-biphenyl]-2-yl)-5-methylisoxazole-3-carboxamide] | 
< 1e-07 M | < 1e-07 M | CCN1CCC(c2ccc(NC(=O)c3cc(C)on3)c(C3=CCC(C)CC3)c2)CC1 (stereo not drawn) [Compound 72b, N-(5-(1-Ethylpiperidin-4-yl)-4′-methyl-2′,3′,4′,5′-tetrahydro-[1,1′-biphenyl]-2-yl)-5-methylisoxazole-3-carboxamide] | 
